The nature of this series: solvent given as SMILES.

Experimental findings from the Deep4Chem optical property database are described below.

Each structure is given as a SMILES string.

As for `O=C1OC(c2ccccc2)=C/C1=C\c1ccc([N+](=O)[O-])cc1`, where the note is “in C1COCCO1”, the emission maximum turned out to be 518 nm.
On to `N#Cc1cc(/C=C/c2ccc(N(c3ccccc3)c3ccccc3)cc2)ccc1/C=C/c1ccc(/C=C/c2ccc(N(c3ccccc3)c3ccccc3)cc2)cc1`, for which the emission maximum (in ClCCl) is given as 560 nm.
In the case of `CC1(C)CC(=O)c2cc(F)cc(F)c2N1`, the emission maximum by setting is: (in CC#N) 455 nm; (in CCO) 492 nm.
Regarding `COc1ccc(C2=C3C(/C=C/c4cc(OC)c(OC)c(OC)c4)=C(C=O)C(C)=[N+]3[B-](F)(F)n3c(/C=C/c4cc(OC)c(OC)c(OC)c4)c(C=O)c(C=Cc4cc(OC)c(OC)c(OC)c4)c32)cc1`, the emission maximum (in ClCCl) is listed as 686 nm.
Take `C=C(C)C(CN1C(=O)c2cccc3c2c(cc2oc(C)nc23)C1=O)OO` (stereo not given): the emission maximum (in CCO) turned out to be 416 nm.
`Cc1ccc(N2C(c3ccccc3[NH-])=[NH+]C(c3ccccc3)C2c2ccccc2)cc1` (stereo not given): where the note is “in Cc1ccccc1”, the emission maximum was determined as 572 nm.
For `COc1cc(OC)c2cc(-c3ccc(-c4cc5c(OC)cc(OC)cc5oc4=O)cc3)c(=O)oc2c1`, where the note is “in ClC(Cl)Cl”, the emission maximum was found to be 446 nm.
For the compound `CC(C)c1cc(C(C)C)c(-c2nnc(-c3ccc(-n4c5ccccc5c5ccccc54)cc3)o2)c(C(C)C)c1`, the emission maximum reads like this: (in CCO) 435 nm; (in Cc1ccccc1) 377 nm.
In the case of `CCCCN1C(=O)C(=C/C=C/C=C/C=C2N(CCCC)c3ccccc3N2CCCC)C(=O)N(CCCC)C1=S`, the emission maximum by setting is: (in CC#N) 688 nm; (in CCCCCC) 707 nm; (in CCO) 685 nm; (in CN(C)C=O) 690 nm; (in CO) 682 nm; (in Cc1ccccc1) 715 nm. For the same compound, the emission maximum by setting is: (in ClC(Cl)Cl) 702 nm; (in ClCCl) 697 nm; (in OCC(F)(F)F) 663 nm.
For the setting “in ClCCl”, `CC(C)(C)NC(=O)c1ccc(-c2cc3ccccc3o2)c2ccc3c4ccccc4c4ccccc4c3c12` showed an emission maximum of 441 nm.
On to `COC(=O)c1ccccc1-c1c2ccc(=[NH2+])cc-2oc2cc(N)ccc12`, for which the emission maximum was found to be 525 nm (in CC#N), 529 nm (in CCO), 538 nm (in CN(C)C=O) and 527 nm (in O).
Regarding `Cc1ccc(C2=C3C=CC(=[N+](C)C)C=C3[Si](C)(C)c3cc(N(C)C)ccc32)c(C)c1`, the emission maximum (in O) came out at 660 nm.
In the case of `F[B-]1(F)Oc2ccccc2-c2cc(-n3c4ccc(-c5ccccc5)cc4c4cc(-c5ccccc5)ccc43)cc[n+]21`, the emission maximum by setting is: (in Cc1ccccc1) 471 nm; (in O=P(c1ccccc1)(c1ccccc1)c1ccccc1Oc1ccccc1P(=O)(c1ccccc1)c1ccccc1) 496 nm.
`CC(=O)c1ccc(-c2cnc3nn4ccccc4c3n2)cc1` returned an emission maximum (in C1CCOC1) of 455 nm.
`Cc1cscc1-c1cc2c3cc(-c4cscc4C)c4nc(C(F)(F)C(F)(F)C(F)(F)F)nc5c(-c6cscc6C)cc(c6cc(-c7cscc7C)c7nc(C(F)(F)C(F)(F)C(F)(F)F)nc1c7c26)c3c45` registered an emission maximum (in C1CCOC1) of 551 nm.
Compound `CCCc1ccc(C#Cc2ccc3nc4ccc(C#Cc5ccc(CCC)cc5)cn4c(=O)c3c2)cc1` returned an emission maximum (in ClCCl) of 480 nm.
`CCCCCCOc1ccc(-c2cnc(-c3nnc(-c4ccc(OCCCCCC)cc4)o3)o2)cc1`: the emission maximum amounted to 370 nm (in C1CCCCC1); 386 nm (in C1CCOC1); 400 nm (in CC#N); 411 nm (in CCO); 419 nm (in CO); 390 nm (in ClC(Cl)Cl).
Turning to `O=c1oc2ccccc2c2c1c(=O)oc1c3ccccc3cc(O)c12`, the emission maximum (in ClCCl) is listed as 533 nm.
Compound `N#Cc1c(N2CCCCC2)cc(-c2ccc(Br)cc2)c2c1CCc1ccccc1-2` gave an emission maximum (in C1CCOC1) of 468 nm.
As for `O=C1NC(=O)/C(=C\c2ccccc2O)S1`, the emission maximum stood at 397 nm (in C1CCCCC1); 418 nm (in C1COCCO1); 428 nm (in CC#N); 424 nm (in CN(C)C=O); 428 nm (in CO); 480 nm (in O). The emission maximum (in OCC(O)CO) stood at 451 nm and the emission maximum (in OCCO) is given as 440 nm.
On to `N#Cc1c(C#N)c(-n2c3ccccc3c3ccccc32)c(-n2c3ccccc3c3ccccc32)c(-n2c3ccccc3c3ccccc32)c1-n1c2ccccc2c2ccccc21`, for which, where the note is “in Cc1ccccc1”, the emission maximum was found to be 525 nm.
With `CCCCCCOc1ccc2oc3c(c2c1)=CC1=C(c2ccccc2C)c2cc4c5cc(OCCCCCC)ccc5oc4n2[B-](F)(F)[N+]=31`, the emission maximum came to 603 nm (in C1CCCCC1), 602.5 nm (in CCOC(C)=O) and 603 nm (in CO).
Regarding `CCOC(=O)C1=CN(c2ccccc2)C=CC1c1ccccc1` (stereo not given), the emission maximum runs as follows: (in C1CCOC1) 419 nm; (in CO) 442 nm.
As to `C#Cc1ccc2cc3c(C)cc(=O)oc3cc2c1`, for the setting “in CCO”, the emission maximum was determined as 437 nm.
On to `Cc1ccc(C2=C3C=CC(Cl)=[N+]3[B-](F)(F)n3c(Cl)ccc32)cc1`, for which the emission maximum is, setting by setting: (in C1CCCCC1) 525 nm; (in C1CCOC1) 523 nm; (in CC#N) 520 nm; (in CCOC(C)=O) 521 nm; (in CO) 519 nm; (in Cc1ccccc1) 529 nm. In addition, for the setting “in ClC(Cl)Cl”, the emission maximum is on record as 526 nm.
Compound `CCOC(CN1C(=O)C2=C(c3ccc(OC)c(OC)c3)N(CC(OCC)OCC)C(=O)C2=C1c1ccc(OC)c(OC)c1)OCC` showed an emission maximum (in ClC(Cl)Cl) of 538 nm.
With `CN1CCN(c2cccc(/C=C/c3ncc(-c4ccc(OCc5ccccc5)c(OCc5ccccc5)c4)o3)c2)CC1`, the emission maximum (in ClCCl) stood at 465 nm.
In the case of `COc1ccc(/C=C2\OC(=O)c3cc(N)ccc32)cc1`, the emission maximum runs as follows: (in CC#N) 450.25 nm; (in CC(C)=O) 446.03 nm; (in CC(C)CO) 474.83 nm; (in CC(C)O) 481.23 nm; (in CCCO) 482.63 nm; (in CCO) 485.44 nm. Further, the emission maximum is recorded as 445.04 nm (in CCOC(C)=O), 443.26 nm (in CCOCC) and 486.14 nm (in CO).
Where the note is “in C1CCOC1”, `CCCCCCCCCCn1c(-c2cc(-c3nc4ccccc4n3CCCCCCCCCC)cc(-c3nc4ccccc4n3CCCCCCCCCC)c2)nc2ccccc21` had an emission maximum of 360.5 nm.
As for `CC(=O)OC[C@H]1O[C@@H](OCC#Cc2ccc(C3=C4C(C)=CC(/C=C/c5ccc([N+](C)(C)C)cc5)=[N+]4[B-](F)(F)n4c(/C=C/c5ccc([N+](C)(C)C)cc5)cc(C)c43)cc2)[C@H](OC(C)=O)C(OC(C)=O)[C@@H]1OC(C)=O` (stereo not given in full), where the note is “in CC#N”, the emission maximum amounted to 629 nm.
Regarding `CC(C)(C)c1ccc2c(c1)c1cc(C(C)(C)C)ccc1n2-c1cc(C(=O)c2ccccc2)cc(-n2c3ccc(C(C)(C)C)cc3c3cc(C(C)(C)C)ccc32)c1`, the emission maximum is reported as 466.36 nm (in Cc1ccccc1) and 470.81 nm (in c1cc(-c2cccc(-n3c4ccccc4c4ccccc43)c2)cc(-n2c3ccccc3c3ccccc32)c1).
Take `N#CSC1=CC2=C(c3ccccc3)c3cc(SC#N)c(N4CCOCC4)n3[B-](F)(F)[N+]2=C1N1CCOCC1`: the emission maximum is given as 628 nm (in CC#N); 623 nm (in CCCCCC); 628 nm (in CCOC(C)=O); 620 nm (in CO); 630 nm (in ClCCl).
